# Reference: ChEMBL document CHEMBL6177918, “Generation and capture of naphthoquinonynes: a new frontier in the development of trypanocidal quinones via aryne chemistry” (RSC Med Chem, 2025)
# How the values were obtained:
# Trypanosoma cruzi [1] = assay: Trypanocidal activity against bloodstream Trypanosoma cruzi trypomastigotes incubated for 24 hrs by light microscopy; assay type: functional, organism-based
# [2] = Stability of compound; assay type: physicochemical
# Trypanosoma cruzi [3] = assay: Trypanocidal activity against Trypanosoma cruzi trypomastigotes incubated for 24 hrs; assay type: functional, organism-based
# [4] = Solubility of compound; assay type: physicochemical
SMILES,IC50 (Trypanosoma cruzi [1]),also measured
COc1ccc(OC)c2cc([Si](C)(C)C)c(O)cc12,69.3 µM,–
C[Si](C)(C)c1cc2c(cc1OS(=O)(=O)C(F)(F)C(F)(F)C(F)(F)C(F)(F)F)C(=O)C=CC2=O,–,Stability [2]: Unstable
O=C1C=CC(=O)c2cc(OCCCCOc3ccccc3)ccc21,362 µM,–
CN(c1ccccc1)c1ccc2c(c1)C(=O)C=CC2=O,29.5 µM,–
CC(C)=C1C2C=CC1c1cc3c(cc12)C(=O)C=CC3=O,> 800 µM,–
Cc1ccc(-c2cc3c(cc2O)C(=O)C=CC3=O)cn1,24.2 µM,–
O=C1C=CC(=O)c2cc3c(cc21)C1C=CC3O1,10.1 µM,–
O=C1C=CC(=O)c2cc(N(C3CCCCC3)C3CCCCC3)ccc21,54.2 µM,–
Cc1ccc(Nc2ccc3c(c2)C(=O)C=CC3=O)cc1,138 µM,–
O=C(Cn1ccnc1[N+](=O)[O-])NCc1ccccc1 [BENZNIDAZOLE],108 µM,IC50 (Trypanosoma cruzi [3]): 6.8 µM
O=C1C=CC(=O)c2cc(-n3cccn3)ccc21,74.4 µM,–
COc1ccc(OC)c2cc(O)ccc12,379 µM,–
O=C1C=CC(=O)c2cc(N(c3ccccc3)c3ccccc3)ccc21,134 µM,–
COc1ccc(OC)c2cc([Si](C)(C)C)c(OS(=O)(=O)C(F)(F)C(F)(F)C(F)(F)C(F)(F)F)cc12,–,solubility [4]: Insoluble
O=C1C=CC(=O)c2c1cccc2-n1cc(-c2ccccc2)nn1,–,IC50 (Trypanosoma cruzi [3]): 86.7 µM
O=C1C=CC(=O)c2cc(-c3cccnc3)c(O)cc21,–,solubility [4]: Insoluble
CC(=O)C12C=CC(O1)c1cc3c(cc12)C(=O)C=CC3=O (stereo not drawn),64.4 µM,–
O=C1C=CC(=O)c2cc(Nc3cccc4ccccc34)ccc21,186 µM,–
CCOC(=O)/C=C/c1cccc2c1C(=O)C=CC2=O,–,IC50 (Trypanosoma cruzi [3]): 90.5 µM

SMILES,IC50 (Trypanosoma cruzi [1]),also measured
CCN(CC)c1ccc2c(c1)C(=O)C=CC2=O,96.2 µM,–
N#Cc1ccc(Nc2ccc3c(c2)C(=O)C=CC3=O)cc1,94.8 µM,–
O=C1C=CC(=O)c2c([Se]c3ccccc3)cccc21,–,IC50 (Trypanosoma cruzi [3]): 14.4 µM
O=C1C=CC(=O)c2cc(Nc3ccccc3)ccc21,39.2 µM,–
CC(C)N(c1ccc2c(c1)C(=O)C=CC2=O)C(C)C,18 µM,–
O=C1C=CC(=O)c2cc(-c3cnc4ccccc4c3)c(O)cc21,46.6 µM,–
COc1ccc(OC)c2ccccc12,> 500 µM,–
O=C1C=CC(=O)c2cc(-c3cccc(-c4ccccc4)n3)c(O)cc21,30.1 µM,–
O=C1C=CC(=O)c2cc(-c3ccc(-c4ccccc4)nc3)c(O)cc21,10.5 µM,–
CCC12C=CC(O1)c1cc3c(cc12)C(=O)C=CC3=O (stereo not drawn),48.8 µM,–
C=CCN(CC=C)c1ccc2c(c1)C(=O)C=CC2=O,111 µM,–
O=C1C=CC(=O)c2cc(N(Cc3ccccc3)Cc3ccccc3)ccc21,> 400 µM,–
CCN(CC)C(=O)Oc1ccc2c(OC)ccc(OC)c2c1,> 800 µM,–
O=C1C=CC(=O)c2c(O)cccc21 [JUGLONE],–,IC50 (Trypanosoma cruzi [3]): 105 µM
CC(=O)OCC12C=CC(O1)c1cc3c(cc12)C(=O)C=CC3=O (stereo not drawn),27.3 µM,–
CC12C=CC(C)(O1)c1cc3c(cc12)C(=O)C=CC3=O,40 µM,–
Cc1ccncc1-c1cc2c(cc1O)C(=O)C=CC2=O,181 µM,–
COCC12C=CC(O1)c1cc3c(cc12)C(=O)C=CC3=O (stereo not drawn),58.1 µM,–
